Values of other authors as cited in US8470371B2, “Polymeric micellar clusters and their uses in formulating drugs” (priority 2006, dated 2013).

Legend:
[1] = drug: propofol; literature
[2] = comparator amphiphiles

2-hydroxypropyl-β-cyclodextrin
Drug Concentration [1]: 38700 µg/mL
Moles drug encapsulated per mole of polymer [1]: 0.75 [10]

C[C@]12C=CC(=O)C=C1CC[C@@H]1[C@@H]2[C@@H](O)C[C@@]2(C)[C@H]1CC[C@]2(O)C(=O)CO [Prednisolone]
Log P: 1.4

CC(C)c1cccc(C(C)C)c1O [Propofol]
Log P: 4.1

polysorbate 20
CMC [2]: 53 µM
HLB [2]: 16.7
